Key:
[1] = tested on: collagenase; experiment: Collagenase expression suppression in human fibroblasts; format: cell-based; conditions: 10^−4 M, 24 hours, untreated group = 100
Protocol: Tocopherol and EGCG are known to prevent skin aging by regenerating epidermal cells.
Human fibroblasts were added to a 96-well microtiter plate containing Dulbecco's modified Eagle's medium (DMEM) supplemented with 2.5 wt % fetal bovine serum, with 5,000 cells/well, and cultured to about 90% confluence.
The production of collagenase in the cell culture was measured using a collagenase measuring system (Amersham Pharmacia, USA). First, the harvested cell culture was added to a 96-well plate having primary collagenase antibodies applied uniformly thereto and was incubated for 3 hours in a constant-temperature bath. 3 hours later, after adding chromophore-conjugated secondary collagen antibodies to the 96-well plate, incubation was performed for 15 minutes. 15 minutes later, a substance inducing color development was added and color development was induced at room temperature for 15 minutes. […] The intensity of the yellow color varied depending on the degree of progress of the reaction.
A cell culture obtained without treating with the composition was used as a control group. That is to say, the expression level of collagenase in the group treated with the test substance was calculated relative to that of the untreated group as 100.
Collagenase expression level(%)=Absorbance of group treated with test substance/Absorbance of control group×100 [Equation 1]

[2] = tested on: MCP-1; experiment: MCP-1 ELISA in retinoic acid-treated normal human skin keratinocytes; format: cell-based; conditions: NHEKs, 24 hours
Protocol: One day before the testing, normal human skin keratinocytes (NHEKs, Lonza) were added to a 96-well plate with 5×10^4 cells/well and cultured in a 5% CO2 incubator at 37° C. for 24 hours. 24 hours later, the cells were washed with PBS twice and the cell culture medium was replaced with a serum-free keratinocyte basement medium (KBM). […] The retinoic acid is known to promote the secretion of the inflammatory cytokine MCP (monocyte chemoattractant protein-1) as a skin irritant. […] For the ELISA, the method provided by BD Science was used.

[3] = tested on: Mel-Ab cells; experiment: Melanin production inhibition in Mel-Ab cells (Dooley's method); format: cell-based, mouse; conditions: 10 ppm, added for 3 consecutive days
Protocol: Melanocytes derived from C57BL/6 mouse (Mel-Ab cells) (Dooley, T. P. et al, Skin Pharmacol, 7, pp. 188-200) were cultured in DMEM supplemented with 10% fetal bovine serum, 100 nM 12-O-tetradecanoylphorbol-13-acetate and 1 nM cholera toxin under the condition of 37° C. and 5% CO2. The cultured Mel-Ab cells were detached with 0.25% trypsin-EDTA and cultured in a 24-well plate with a concentration of 10^5 cells/well. During the culturing, each test substance was added for 3 consecutive days starting from day 2. […] After removing the medium, the cells were washed with phosphate-buffered saline (PBS) and lysed with 1 N sodium hydroxide. After measuring absorbance at 400 nm, the melanin production inhibition was calculated according to Equation 2.
Melanin production inhibition(%)=100−(Absorbance of group treated with test substance/Absorbance of control group×100) [Equation 2]

[4] = Skin irritation test by sensitive panels; format: in vivo, human; conditions: scale 0-3.0
Text: 0.5-1.0: Slight irritation.
1.1-2.0: Moderate irritation.
2.1-3.0: Severe irritation.

[5] = DPPH method, antioxidative effect; format: biochemical; conditions: sample concentration at which DPPH absorbance (540 nm) decreased by 50%; 37° C., 30 minutes
Protocol: The DPPH method evaluates antioxidative effect by measuring and comparing the effect of suppressing DPPH oxidation based on the change in absorbance caused by the reduction of DPPH. […] After incubation at 37° C. for 30 minutes, absorbance was measured at 540 nm. The analysis result is shown in Table 3, where IC50 means the sample concentration when the absorbance was decreased by 50% due to the added sample.

[6] = 0.5 mL on cheek, 15 sensitive panels

Compound: O=C(O[C@@H]1Cc2c(O)cc(O)cc2O[C@@H]1c1cc(O)c(O)c(O)c1)c1cc(O)c(O)c(O)c1 [EGCG]
- Collagenase expression level [1]: 59%

Compound: C[C@]12CCC(=O)C=C1CC[C@@H]1[C@@H]2[C@@H](O)C[C@@]2(C)[C@H]1CC[C@]2(O)C(=O)CO [Hydrocortisone, hydrocortisone]
- MCP-1 secretion ([2]; 100 nM + retinoic acid 10 μM): 448.3 pg/mL

Compound: Oc1ccc(O)cc1 [Hydroquinone, hydroquinone]
- Melanin production inhibition [3]: 57.5%

Compound: O=c1cc(CO)occ1O [Kojic acid, kojic acid]
- Flushing score [4, 6]: 0.43 points
- Pricking score [4, 6]: 0.81 points
- Mean irritation score ([4]; mean of pricking and flushing): 0.62 points

Compound: CC1=C(/C=C/C(C)=C/C=C/C(C)=C/C(=O)O)C(C)(C)CCC1 [Retinoic acid, retinoic acid]
- MCP-1 secretion ([2]; retinoic acid 10 μM alone, untreated group 527.3): 804.5 pg/mL

Compound: Cc1c(C)c2c(c(C)c1O)CCC(C)(C(=O)O)O2 (stereo not drawn) [Trolox]
- IC50 [5]: 57 ppm

Compound: tocopherol
- Collagenase expression level [1]: 81%
